Measured values from patent publication US7696212B2, “Xanthine derivatives, the preparation thereof and their use as pharmaceutical compositions” (Boehringer Ingelheim Pharma GmbH and Co. KG, priority 2002, dated 2010).
Where a name gives a salt, the structure may show the parent alone.

molecular target: T1, DPP-IV (Homo sapiens, UniProt P27487); test: DPP-IV assay with extract of Caco-2 cells as DPP IV source, AFC substrate, fluorescence; format: biochemical; conditions: extract of human colon carcinoma cell line Caco-2 as DPP IV source; substrate 100 μM; 60 minutes at ambient temperature; read-out: DPP IV inhibition IC50
T1 construct: an extract of human colon carcinoma cell line Caco-2 is used as the DPP IV source; endogenous in cells; host or cells: Caco-2 (human colon carcinoma), differentiated to induce DPP-IV expression; solubilised in Nonidet-P40 buffer
T1 sequence (P27487 whole entry): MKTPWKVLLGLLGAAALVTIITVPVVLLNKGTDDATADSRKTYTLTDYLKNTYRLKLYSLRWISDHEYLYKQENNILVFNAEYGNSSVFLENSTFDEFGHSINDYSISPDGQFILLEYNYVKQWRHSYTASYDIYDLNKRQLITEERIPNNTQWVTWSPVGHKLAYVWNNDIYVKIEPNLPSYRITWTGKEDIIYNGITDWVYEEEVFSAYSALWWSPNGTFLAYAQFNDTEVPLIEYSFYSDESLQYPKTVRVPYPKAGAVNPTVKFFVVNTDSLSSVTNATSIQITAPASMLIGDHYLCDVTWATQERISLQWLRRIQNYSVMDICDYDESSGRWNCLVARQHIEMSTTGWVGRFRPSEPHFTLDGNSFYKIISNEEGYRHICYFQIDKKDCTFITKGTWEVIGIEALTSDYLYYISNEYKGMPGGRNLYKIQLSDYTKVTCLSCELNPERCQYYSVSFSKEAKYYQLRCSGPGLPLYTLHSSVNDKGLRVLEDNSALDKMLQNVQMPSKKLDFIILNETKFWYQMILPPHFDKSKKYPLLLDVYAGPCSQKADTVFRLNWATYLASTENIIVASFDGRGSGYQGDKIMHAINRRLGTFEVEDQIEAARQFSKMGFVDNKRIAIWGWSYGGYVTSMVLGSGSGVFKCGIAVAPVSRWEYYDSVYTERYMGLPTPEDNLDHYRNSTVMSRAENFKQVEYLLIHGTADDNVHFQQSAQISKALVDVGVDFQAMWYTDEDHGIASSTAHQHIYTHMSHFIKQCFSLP
Procedure: The differentiation of the cells in order to induce the DPP-IV expression was carried out as described by Reiher et al. in an article entitled “Increased expression of intestinal cell line Caco-2”, which appeared in Proc. Natl. Acad. Sci. Vol. 90, pages 5757-5761 (1993). The cell extract was obtained from cells solubilised in a buffer (10 mM Tris HCl, 0.15 M NaCl, 0.04 t.i.u. aprotinin, 0.5% Nonidet-P40, pH 8.0) by centrifuging at 35,000 g for 30 minutes at 4° C. (to remove cell debris).
The DPP-IV assay was carried out as follows:
50 μl substrate solution (AFC; AFC is amido-4-trifluoromethylcoumarin), final concentration 100 μM, were placed in black microtitre plates. 20 μl of assay buffer (final concentrations 50 mM Tris HCl pH 7.8, 50 mM NaCl, 1% DMSO) was pipetted in. The reaction was started by adding 30 μl of solubilised Caco-2 protein (final concentration 0.14 μg of protein per well). The test substances to be investigated were typically added prediluted in 20 μl, and the volume of assay buffer was then reduced accordingly. The reaction was carried out at ambient temperature, incubating for 60 minutes. Then the fluorescence was measured in a Victor 1420 Multilabel Counter, the excitation wavelength being 405 nm and the emission wavelength being 535 nm. Blank readings (corresponding to 0% activity) were obtained in mixtures without any Caco-2 protein (volume replaced by assay buffer), control values (corresponding to 100% activity) were obtained in mixtures with no substance added. […]

Compound | IC50
CC#CCn1c(N2CCCC(N)C2)nc2c1c(=O)n(CC1=Nc3ccccc3N(C)c3ccccc31)c(=O)n2C (centres unmarked) [1(12), 1-[(5-methyl-5H-dibenzo[b,e][1,4]diazepin-11-yl)methyl]-3-methyl-7-(2-butyn-1-yl)-8-(3-amino-piperidin-1-yl)-xanthine] | 14 nM
CC#CCn1c(N2CCCC(N)C2)nc2c1c(=O)n(Cc1nc3ccccc3c3ncccc13)c(=O)n2C (centres unmarked) [1(25), 1-[(benzo[h][1,6]naphthyridin-5-yl)methyl]-3-methyl-7-(2-butyn-1-yl)-8-(3-amino-piperidin-1-yl)-xanthine] | 7 nM
CC#CCn1c(N2CCC[C@@H](N)C2)nc2c1c(=O)n(Cc1nc3ccccc3c3ccccc13)c(=O)n2C [1(33), 1-[(phenanthridin-6-yl)methyl]-3-methyl-7-(2-butyn-1-yl)-8-((R)-3-amino-piperidin-1-yl)-xanthine] | 4 nM
CC(C)=CCn1c(N2CCCC(N)C2)nc2c1c(=O)n(/C=C1\NC(=O)c3ccccc31)c(=O)n2C (centres unmarked) [Example 3, 1-[(3-oxo-2,3-dihydro-isoindol-1-ylidene)methyl]-3-methyl-7-(3-methyl-2-buten-1-yl)-8-(3-amino-piperidin-1-yl)-xanthine] | 20 nM
CC#CCn1c(N2CCCC(N)C2)nc2c1c(=O)n(CC1=Nc3ccccc3CN1)c(=O)n2C (centres unmarked) [1(10), 1-[(3,4-dihydro-quinazolin-2-yl)methyl]-3-methyl-7-(2-butyn-1-yl)-8-(3-amino-piperidin-1-yl)-xanthine] | 8 nM
CC#CCn1c(N2CCC[C@@H](N)C2)nc2c1c(=O)n(Cc1cc3nccnc3c3ccccc13)c(=O)n2C [1(30), 1-[(benzo[f]quinoxalin-6-yl)methyl]-3-methyl-7-(2-butyn-1-yl)-8-((R)-3-amino-piperidin-1-yl)-xanthine] | 3 nM
CC#CCn1c(N2CCC[C@@H](N)C2)nc2c1c(=O)n(CC1=Nc3cccc4cccc(c34)N1)c(=O)n2C [1(29), 1-[(1H-perimidin-2-yl)methyl]-3-methyl-7-(2-butyn-1-yl)-8-((R)-3-amino-piperidin-1-yl)-xanthine] | 3 nM
CC#CCn1c(N2CCC[C@@H](N)C2)nc2c1c(=O)n(Cc1nc3cccnc3c3ccccc13)c(=O)n2C [1(28), 1-[(benzo[c][1,5]naphthyridin-6-yl)methyl]-3-methyl-7-(2-butyn-1-yl)-8-((R)-3-amino-piperidin-1-yl)-xanthine] | 2 nM
CC#CCn1c(N2CCCC(N)C2)nc2c1c(=O)n(Cc1nc3ncccc3c3ccccc13)c(=O)n2C (centres unmarked) [1(27), 1-[(benzo[c][1,8]naphthyridin-6-yl)methyl]-3-methyl-7-(2-butyn-1-yl)-8-(3-amino-piperidin-1-yl)-xanthine] | 2 nM
CC(C)=CCn1c(N2CCCC(N)C2)nc2c1c(=O)n(CC1=CS(=O)(=O)N(C)c3ccccc31)c(=O)n2C (centres unmarked) [Example 1, 1-[(1-methyl-2,2-dioxo-1H-benzo[c][1,2]thiazin-4-yl)methyl]-3-methyl-7-(3-methyl-2-buten-1-yl)-8-(3-amino-piperidin-1-yl)-xanthine] | 13 nM
C/C=C/Cn1c(N2CCC[C@@H](N)C2)nc2c1c(=O)n(CC1=NCC(=O)Nc3ccccc31)c(=O)n2C [Example 1(2), 1-[(2-oxo-2,3-dihydro-1H-benzo[e][1,4]diazepin-5-yl)methyl]-3-methyl-7-((E)-2-buten-1-yl)-8-((R)-3-amino-piperidin-1-yl)-xanthine] | 6 nM
CC#CCn1c(N2CCCC(N)C2)nc2c1c(=O)n(Cc1nc3ccccc3c3ccnn13)c(=O)n2C (centres unmarked) [1(26), 1-[(pyrazolo[1,5-c]quinazolin-5-yl)methyl]-3-methyl-7-(2-butyn-1-yl)-8-(3-amino-piperidin-1-yl)-xanthine] | 7 nM
CC#CCn1c(N2CCCC(N)C2)nc2c1c(=O)n(CC1=NC(C(F)(F)F)Cc3ccccc31)c(=O)n2C (centres unmarked) [1(7), 1-[(3-trifluoromethyl-3,4-dihydro-isoquinolin-1-yl)methyl]-3-methyl-7-(2-butyn-1-yl)-8-(3-amino-piperidin-1-yl)-xanthine x trifluoroacetic acid] | 11 nM
CC#CCn1c(N2CCCC(N)C2)nc2c1c(=O)n(Cc1nc3c(c4ccccc14)CCCC3)c(=O)n2C (centres unmarked) [1(4), 1-[(1,2,3,4-tetrahydro-phenanthridin-6-yl)methyl]-3-methyl-7-(2-butyn-1-yl)-8-(3-amino-piperidin-1-yl)-xanthine x trifluoroacetic acid] | 5 nM
CC#CCn1c(N2CCCC(N)C2)nc2c1c(=O)n(Cc1nc3ccccc3c3ccccc13)c(=O)n2C (centres unmarked) [1(3), 1-[(phenanthridin-6-yl)methyl]-3-methyl-7-(2-butyn-1-yl)-8-(3-amino-piperidin-1-yl)-xanthine-dihydrochloride] | 5 nM
CC#CCn1c(N2CCC[C@@H](N)C2)nc2c1c(=O)n(CC1=Nc3ccccc3Oc3ccccc31)c(=O)n2C [1(8), 1-[(dibenzo[b,f][1,4]oxazepin-11-yl)methyl]-3-methyl-7-(2-butyn-1-yl)-8-((R)-3-amino-piperidin-1-yl)-xanthine] | 4 nM
CC#CCn1c(N2CCC[C@@H](N)C2)nc2c1c(=O)n(Cc1nc3ccccc3c3ccccc13)c(=O)n2C1CC1 [1(20), 1-[(phenanthridin-6-yl)methyl]-3-cyclopropyl-7-(2-butyn-1-yl)-8-((R)-3-amino-piperidin-1-yl)-xanthine] | 10 nM
CC#CCn1c(N2CCCC(N)C2)nc2c1c(=O)n(Cc1cn3c(ccc4ccccc43)n1)c(=O)n2C (centres unmarked) [1(32)] | 4 nM
CC#CCn1c(N2CCCC(N)C2)nc2c1c(=O)n(CC1=NCCOc3ccccc31)c(=O)n2C (centres unmarked) [Example 2, 1-[(2,3-dihydro-benzo[f][1,4]oxazepin-5-yl)methyl]-3-methyl-7-(2-butyn-1-yl)-8-(3-amino-piperidin-1-yl)-xanthine] | 6 nM
CC#CCn1c(N2CCCC(N)C2)nc2c1c(=O)n(CC1=NC(C)(C(=O)OC)Cc3ccccc31)c(=O)n2C (centres unmarked) [1(1), 1-[(3-methoxycarbonyl-3-methyl-3,4-dihydro-isoquinolin-1-yl]methyl]-3-methyl-7-(2-butyn-1-yl)-8-(3-amino-piperidin-1-yl)-xanthine] | 32 nM
CC#CCn1c(N2CCCC(N)C2)nc2c1c(=O)n(Cc1ccc3nonc3c1)c(=O)n2C (centres unmarked) [1(15), 1-[(benzo[1,2,5]oxadiazol-5-yl)methyl]-3-methyl-7-(2-butyn-1-yl)-8-(3-amino-piperidin-1-yl)-xanthine] | 11 nM

system: rats; test: Tolerability after oral administration to rats (behaviour); format: in vivo, rat; conditions: 10 mg/kg by oral route

Compound | changes in the animals' behaviour
C/C=C/Cn1c(N2CCC[C@@H](N)C2)nc2c1c(=O)n(CC1=NCC(=O)Nc3ccccc31)c(=O)n2C [Example 1(2), 1-[(2-oxo-2,3-dihydro-1H-benzo[e][1,4]diazepin-5-yl)methyl]-3-methyl-7-((E)-2-buten-1-yl)-8-((R)-3-amino-piperidin-1-yl)-xanthine] | no changes in the animals' behaviour could be detected

system: not given; test: not given; conditions: not given

Compound | melting point
CC(C)=CCn1c(N2CCCC(N)C2)nc2c1c(=O)n(CC1=CS(=O)(=O)N(C)c3ccccc31)c(=O)n2C (centres unmarked) [Example 1, 1-[(1-methyl-2,2-dioxo-1H-benzo[c][1,2]thiazin-4-yl)methyl]-3-methyl-7-(3-methyl-2-buten-1-yl)-8-(3-amino-piperidin-1-yl)-xanthine] | 200 to 205 °C
